One experiment concerns the target GmolGOBP1 (Grapholita molesta, UniProt H9XTU5). Kind of experiment: Fluorescence competitive binding assay with probe 1-NPN, rGmolGOBP1. The following applies: competitive binding with 1-NPN. The procedure:
(§1) Fluorescence binding assays were performed on a Hitachi (Tokyo, Japan) F-4500 fluorescence spectrophotometer with a 1 cm light path fluorimeter quartz cuvette. Both of the slit widths for excitation and emission were 10 nm. 1-N-phenyl-naphthylamine (1-NPN) was dissolved in HPLC purity grade methanol to yield a 1 mM stock solution. […] The probes were excited at 337 nm and emission spectra were recorded between 370 and 550 nm. […] Binding data were collected in three independent measurements.
(§2) Dissociation constants of the complex GmolGOBPs/1-NPN (K1-NPN) were calculated by a nonlinear regression binding curve, using Prism 5.0 (GraphPad Software Inc.).

The target of another experiment is GmolGOBP2 (Grapholita molesta, UniProt H9XTU6). The experiment can be described thus: Fluorescence competitive binding assay with probe 1-NPN, rGmolGOBP2 wild-type. Conditions: protein and 1-NPN 2 μM, pH 7.4. The procedure: as §1, §2
GmolGOBP2, sequence (H9XTU6 entry or part of it): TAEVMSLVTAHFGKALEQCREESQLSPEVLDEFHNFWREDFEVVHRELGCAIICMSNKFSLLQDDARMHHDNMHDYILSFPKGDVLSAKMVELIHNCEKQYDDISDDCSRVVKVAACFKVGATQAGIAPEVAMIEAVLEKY
The target of a further experiment is GmolGOBP2 T9A (Grapholita molesta, UniProt H9XTU6, T29A). The experiment can be described thus: Fluorescence competitive binding assay, GmolGOBP2 mutant T9A. The procedure:
(§3) Fluorescence binding assays were performed on a Hitachi (Tokyo, Japan) F-4500 fluorescence spectrophotometer with a 1 cm light path fluorimeter quartz cuvette. Both of the slit widths for excitation and emission were 10 nm. 1-N-phenyl-naphthylamine (1-NPN) was dissolved in HPLC purity grade methanol to yield a 1 mM stock solution. A 2 μM solution of the protein in 20 mM Tris-HCl, pH 7.4, was titrated with aliquots of 1 mM 1-NPN to final concentrations of 1, 2, 4, 6, 8, 10, 12, 14, 16, 18, and 22 μM. The probes were excited at 337 nm and emission spectra were recorded between 370 and 550 nm. All ligands (S1 File) used in competitive binding assays were also dissolved in HPLC purity grade methanol. The final concentrations of sex pheromones were between 1 and 22 μM for each rGmolGOBP protein, whereas the concentrations of 30 synthetic plant volatiles to rGmolGOBP1 and 2 were up to 64 and 100 μM, respectively. Binding data were collected in three independent measurements.
(§4) Dissociation constants of the complex GmolGOBPs/1-NPN (K1-NPN) were calculated by a nonlinear regression binding curve, using Prism 5.0 (GraphPad Software Inc.). The inhibition constants (Ki) of the competitors were computed from the corresponding IC50 values using the equation: Ki = [IC50]/(1+[1−NPN]/K1−NPN), where [1−NPN] is the free concentration of 1−NPN and K1-NPN is the dissociation constant of the complex protein/1-NPN.
(§5) Gene-specific primers were designed in accordance with the recommended protocols of the TaKaRa MutanBEST Kit (TaKaRa, Shiga, Japan). The GmolGOBP2 coding sequence was mutated to create the three mutants GmolGOBP2 T9A (threonine to alanine at position 9), GmolGOBP2 V111A (valine to alanine at position 111), and GmolGOBP2 V114A (valine to alanine at position 114). Mutations were obtained using the TaKaRa MutanBEST Kit with Pyrobest DNA polymerase with the pMD19-T/GmolGOBP2 plasmid DNA as template. All plasmids containing mutations were verified by DNA sequencing. Mutated protein expression and enrichment were performed as described above for rGmolGOBP1 and 2. After determining concentrations, purified mutants were applied to verify the binding affinities with dodecanol and its analogs in fluorescence ligand-binding assays.

For another experiment, the target named is GmolGOBP2 V111A (Grapholita molesta, UniProt H9XTU6, V131A). The experiment can be described thus: Fluorescence competitive binding assay, GmolGOBP2 mutant V111A. The procedure:
as §3, §4, §5

The target of a further experiment is GmolGOBP2 V114A (Grapholita molesta, UniProt H9XTU6, V134A). Kind of experiment: Fluorescence competitive binding assay, GmolGOBP2 mutant V114A. The procedure:
as §3, §4, §5

Another experiment deals with rGmolGOBP2 (Grapholita molesta, UniProt H9XTU6). Kind of experiment: Effect of pH on binding affinity of rGmolGOBP2. The procedure: Based on the fluorescence measurement experiments as described above, we further evaluated the effects of pH on the binding affinities of GmolGOBP2 to ligands; the binding of GmolGOBP2 to the representative ligand dodecanol was detected at six different pH values (4.0, 5.0, 6.8, 7.4, 8.0 and 8.8) in 20 mM Tris-HCl buffer. All the values of binding affinities were collected in three independent measurements. Data are reported as means±SEM. Difference in pH effect on binding affinity of rGmolGOBP2 was analyzed with one-way analysis of variance (ANOVA), followed by the Student-Newman-Keuls (S-N-K) test at α = 0.05. P<0.05 was considered statistically significant. For statistical analysis we used SPSS 16.0 software (SPSS Inc., Chicago, IL).
rGmolGOBP2, sequence (H9XTU6 entry or part of it): as above

In a further experiment the target is rGmolOBP15. Further details: method as in PMID 26609640. Conditions: cited from earlier work.

We go through one compound from publication PMC4859520, “Binding Properties of General Odorant Binding Proteins from the Oriental Fruit Moth, Grapholita molesta (Busck) (Lepidoptera: Tortricidae)” (PLoS ONE, 2016).

“Also recorded” adds a separate entry of the source.

GmolGOBP2 V111A, sequence (H9XTU6 entry or part of it V131A): as the sequence (H9XTU6 entry or part of it) above, with V111A counted along it
GmolGOBP2 T9A, sequence (H9XTU6 entry or part of it T29A): as the sequence (H9XTU6 entry or part of it) above, with T9A counted along it
GmolGOBP2 V114A, sequence (H9XTU6 entry or part of it V134A): as the sequence (H9XTU6 entry or part of it) above, with V114A counted along it
GmolGOBP1, sequence (H9XTU5 entry or part of it): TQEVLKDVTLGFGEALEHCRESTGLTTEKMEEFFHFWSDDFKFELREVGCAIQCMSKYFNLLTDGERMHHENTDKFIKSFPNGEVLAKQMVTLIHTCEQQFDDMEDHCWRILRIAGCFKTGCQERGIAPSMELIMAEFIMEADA

Usually Ki stands for the equilibrium dissociation constant of an inhibitor or competing ligand from its target. Usually IC50 stands for the concentration at which inhibition is half-maximal. With `CCCCCCCCCCCCO` [12:OH, dodecanol], the “binding to rGmolGOBP1 (in words)” value on GmolGOBP1 is on record as “did not bind”. Moreover, the Ki was 1.22 µM at GmolGOBP2 (calculated from IC50, read-out: GmolGOBP2 Ki); 6.04 ± 0.17 µM on GmolGOBP2 T9A; 1.35 ± 0.22 µM on GmolGOBP2 V111A; 1.78 ± 0.13 µM on GmolGOBP2 V114A; 3.24 µM on rGmolOBP15. Further, on GmolGOBP2 (displacing half of initial fluorescence, read-out: GmolGOBP2 IC50), the IC50 came out at 1.78 ± 0.23 µM. Also, the “decrease in affinity of T9A mutant” value on GmolGOBP2 T9A (T9A versus wild-type rGmolGOBP2) was 3-5 fold. Also, the “affinity of V111A mutant versus wild-type (in words)” value on GmolGOBP2 V111A (V111A versus wild-type rGmolGOBP2) is listed as “slightly lower affinities”. For the same compound, the “affinity of V114A mutant versus wild-type (in words)” value at GmolGOBP2 V114A (V114A versus wild-type rGmolGOBP2) is listed as “slightly lower affinities”. Further, the “binding affinity of rGmolGOBP2 at pH 4.0 (in words)” value on rGmolGOBP2 (pH 4.0, 20 mM Tris-HCl) is “weak ability”. In addition, the “binding affinity of rGmolGOBP2 at pH 7.4 (in words)” value on rGmolGOBP2 (pH 7.4, 20 mM Tris-HCl, six pH values 4.0 to 8.8 compared) was “maximum value; also recorded: pronounced binding affinity”.
